Experimental data published in DBAASP.
Values after ≈ are worked out from the molar mass of the structure shown.

Tests used:
Test in all cases: ≥ marks a high value that may be exact or a test limit, other limits are often not marked, values filed in µg/mL are converted to µM
[1] = tested on: Bacillus subtilis ATCC 6633
[2] = tested on: Candida albicans ATCC 2002
[3] = tested on: Escherichia coli ATCC 25922
Shigella dysenteriae = tested on: Shigella dysenteriae
[4] = tested on: Staphylococcus aureus ATCC 2592
[5] = tested on: Acinetobacter baumannii ATCC 19606
[6] = tested on: Candida parapsilosis ATCC 22019
[7] = tested on: Enterococcus faecalis ATCC 29212
Escherichia coli ML-35p = tested on: Escherichia coli ML-35p
[8] = tested on: Klebsiella pneumoniae ATCC 13883
[9] = tested on: Pseudomonas aeruginosa ATCC 27853
Saccharomyces cerevisiae = tested on: Saccharomyces cerevisiae
[10] = tested on: Staphylococcus aureus ATCC 25923
[11] = tested on: Staphylococcus aureus ATCC 43300
[12] = tested on: Staphylococcus aureus ATCC BAA-44
[13] = tested on: Staphylococcus aureus ST1065
[14] = tested on: Streptococcus pyogenes ATCC 19615
Bacillus subtilis = tested on: Bacillus subtilis
Candida albicans = tested on: Candida albicans
Escherichia coli = tested on: Escherichia coli
Micrococcus luteus = tested on: Micrococcus luteus
Proteus mirabilis = tested on: Proteus mirabilis
Pseudomonas aeruginosa = tested on: Pseudomonas aeruginosa
Salmonella typhimurium = tested on: Salmonella typhimurium
Serratia marcescens = tested on: Serratia marcescens
[15] = tested on: Staphylococcus epidermidis
Bacillus subtilis 168 = tested on: Bacillus subtilis 168
[16] = tested on: Candida albicans F7-39/IDE99
Escherichia coli B = tested on: Escherichia coli B
[17] = tested on: Micrococcus luteus CCM 144
Staphylococcus aureus 1 = tested on: Staphylococcus aureus 1
Staphylococcus aureus = tested on: Staphylococcus aureus
[18] = tested on: Bacillus subtilis ATCC 23857
[19] = tested on: Candida albicans ATCC 64550
[20] = tested on: Acinetobacter baumannii ATCC 7978
[21] = tested on: Klebsiella pneumoniae WGLW2
[22] = tested on: Pseudomonas aeruginosa PA14
[23] = tested on: Staphylococcus aureus ATCC 29231
[24] = tested on: Pseudomonas aeruginosa PAO1

CC(C)C[C@H](NC(=O)CNC(=O)[C@@H](NC(=O)[C@H](CCCCN)NC(=O)CNC(=O)[C@H](C)NC(=O)[C@H](Cc1c[nH]c2ccccc12)NC(=O)[C@H](CCCCN)NC(=O)[C@H](CC(C)C)NC(=O)[C@H](CC(C)C)NC(=O)[C@H](Cc1ccccc1)NC(=O)[C@H](CCCCN)NC(=O)[C@H](CC(C)C)NC(=O)[C@@H](NC(=O)[C@H](Cc1ccccc1)NC(=O)[C@@H](N)Cc1ccccc1)C(C)C)C(C)C)C(=O)N[C@@H](CCC(=O)O)C(=O)N[C@@H](Cc1cnc[nH]1)C(=O)N[C@@H](CC(C)C)C(=O)N[C@@H](C)C(=O)N[C@H]1CSSC[C@@H](C(=O)O)NC(=O)[C@H](Cc2c[nH]c3ccccc23)NC(=O)[C@H](CC(N)=O)NC(=O)[C@H](CCCCN)NC(=O)[C@H](Cc2ccccc2)NC(=O)[C@H](CCCCN)NC1=O [FFVLKFLLKWAGKVGLEHLACKFKNWC]
MIC [1]: 0.465 µM (≈ 1.5 µg/mL) | MIC [2]: 3.87 µM (≈ 12.5 µg/mL) | MIC [3]: 1.94 µM (≈ 6.25 µg/mL) | MIC (Shigella dysenteriae): 0.465 µM (≈ 1.5 µg/mL) | MIC [4]: 3.87 µM (≈ 12.5 µg/mL)

CC[C@H](C)[C@H](NC(=O)[C@H](Cc1cnc[nH]1)NC(=O)[C@@H]1CCCN1C(=O)[C@@H](NC(=O)[C@H](CCSC)NC(=O)[C@H](CO)NC(=O)[C@H](CC(C)C)NC(=O)[C@@H](N)Cc1ccccc1)[C@@H](C)CC)C(=O)N[C@H](C(=O)N[C@@H](CO)C(=O)NCC(=O)N[C@H](C(=O)N[C@@H](C)C(=O)N[C@@H](C)C(=O)N[C@@H](CC(C)C)C(=O)N[C@@H](C)C(=O)N[C@@H](CCCCN)C(=O)N[C@@H](Cc1cnc[nH]1)C(=O)N[C@@H](CC(C)C)C(N)=O)C(C)C)C(C)C [FLSMIPHIVSGVAALAKHL]
MIC [5]: 6.25 µM (≈ 12.5 µg/mL) | MIC [6]: ≥ 50 µM | MIC [7]: 50 µM (≈ 100 µg/mL) | MIC [3]: 25 µM (≈ 50.1 µg/mL) | MIC (Escherichia coli ML-35p): 25 µM (≈ 50.1 µg/mL) | MIC [8]: 25 µM (≈ 50.1 µg/mL) | MIC [9]: 100 µM (≈ 200 µg/mL) | MIC (Saccharomyces cerevisiae): 12.5 µM (≈ 25 µg/mL) | MIC [10]: 6.25 µM (≈ 12.5 µg/mL) | MIC [11]: 6.25 µM (≈ 12.5 µg/mL) | MIC [12]: 6.25 µM (≈ 12.5 µg/mL) | MIC [13]: 6.25 µM (≈ 12.5 µg/mL) | MIC [14]: 3.12 µM (≈ 6.25 µg/mL)

CC[C@H](C)[C@H](NC(=O)CN)C(=O)N[C@@H](CC(C)C)C(=O)N[C@@H](CC(=O)O)C(=O)N[C@H](C(=O)N[C@@H](CC(C)C)C(=O)N[C@@H](CCCCN)C(=O)N[C@@H](CCC(N)=O)C(=O)N[C@@H](Cc1ccccc1)C(=O)N[C@@H](C)C(=O)N[C@@H](CCCCN)C(=O)NCC(=O)N[C@H](C(=O)NCC(=O)N[C@@H](CCCCN)C(=O)N[C@@H](CC(=O)O)C(=O)N[C@@H](CC(C)C)C(=O)N[C@H](C(=O)N[C@@H](CCCCN)C(=O)NCC(=O)N[C@@H](C)C(=O)N[C@@H](C)C(=O)N[C@@H](CCC(N)=O)C(=O)NCC(=O)N[C@H](C(=O)O)C(C)C)C(C)C)C(C)C)[C@@H](C)O [GILDTLKQFAKGVGKDLVKGAAQGV]
MIC (Bacillus subtilis): ≥ 39.8 µM | MIC (Candida albicans): > 39.8 µM | MIC (Escherichia coli): 19.9 µM (≈ 50 µg/mL) | MIC (Micrococcus luteus): 1.99 µM (≈ 5 µg/mL) | MIC (Proteus mirabilis): 19.9 µM (≈ 50 µg/mL) | MIC (Pseudomonas aeruginosa): 39.8 µM (≈ 100 µg/mL) | MIC (Saccharomyces cerevisiae): 19.9 µM (≈ 50 µg/mL) | MIC (Salmonella typhimurium): ≥ 39.8 µM | MIC (Serratia marcescens): ≥ 39.8 µM | MIC (Shigella dysenteriae): 19.9 µM (≈ 50 µg/mL) | MIC [15]: 29.8 µM (≈ 75 µg/mL)

CC[C@H](C)[C@H](NC(=O)CN)C(=O)N[C@@H](CC(C)C)C(=O)N[C@@H](CCCCN)C(=O)N[C@@H](CO)C(=O)N[C@@H](CC(C)C)C(=O)N[C@@H](CC(C)C)C(=O)N[C@@H](CCCCN)C(=O)N[C@@H](CCCCN)C(=O)N[C@@H](CC(C)C)C(=O)N[C@@H](CCCCN)C(=O)N[C@@H](CCCCN)C(=O)N[C@H](C(=O)N[C@H](C(=O)N[C@@H](C)C(=O)N[C@@H](CCCCN)C(N)=O)[C@@H](C)CC)[C@@H](C)CC [GILKSLLKKLKKIIAK]
MIC (Bacillus subtilis 168): 7 µM (≈ 12.6 µg/mL) | MIC [16]: 24 µM (≈ 43 µg/mL) | MIC (Escherichia coli B): 10 µM (≈ 17.9 µg/mL) | MIC [17]: 3 µM (≈ 5.38 µg/mL) | MIC [9]: 5 µM (≈ 8.97 µg/mL) | MIC (Pseudomonas aeruginosa): 8.9 µM (≈ 16 µg/mL) | MIC (Staphylococcus aureus 1): 4.3 µM (≈ 7.71 µg/mL) | MIC [11]: 17 µM (≈ 30.5 µg/mL) | MIC (Staphylococcus aureus): 10 µM (≈ 17.9 µg/mL) | MIC [15]: 2.2 µM (≈ 3.95 µg/mL)

CC[C@H](C)[C@H](NC(=O)CN)C(=O)N[C@@H](CCSC)C(=O)N[C@@H](CO)C(=O)N[C@@H](CO)C(=O)N[C@@H](CC(C)C)C(=O)N[C@@H](CCSC)C(=O)N[C@@H](CCCCN)C(=O)N[C@@H](CCCCN)C(=O)N[C@@H](CC(C)C)C(=O)N[C@@H](CCCCN)C(=O)N[C@@H](CCCCN)C(=O)N[C@H](C(=O)N[C@H](C(=O)N[C@@H](CCCCN)C(=O)N[C@@H](CCCCN)C(N)=O)[C@@H](C)CC)[C@@H](C)CC [GIMSSLMKKLKKIIKK]
MIC (Bacillus subtilis 168): 7 µM (≈ 12.9 µg/mL) | MIC [16]: 6.3 µM (≈ 11.6 µg/mL) | MIC (Escherichia coli B): 22 µM (≈ 40.6 µg/mL) | MIC [17]: 3 µM (≈ 5.54 µg/mL) | MIC [9]: 7.1 µM (≈ 13.1 µg/mL) | MIC (Pseudomonas aeruginosa): 9.9 µM (≈ 18.3 µg/mL) | MIC (Staphylococcus aureus 1): 18 µM (≈ 33.2 µg/mL) | MIC [11]: 54 µM (≈ 99.7 µg/mL) | MIC (Staphylococcus aureus): 65 µM (≈ 120 µg/mL) | MIC [15]: 1.7 µM (≈ 3.14 µg/mL)

CC(C)C[C@H](NC(=O)[C@H](CC(C)C)NC(=O)[C@H](CCCCN)NC(=O)[C@H](CCCCN)NC(=O)[C@H](Cc1c[nH]c2ccccc12)NC(=O)[C@H](Cc1c[nH]c2ccccc12)NC(=O)[C@H](CCCCN)NC(=O)[C@H](CC(C)C)NC(=O)[C@H](CC(C)C)NC(=O)[C@@H](N)CCCCN)C(N)=O [KLLKWWKKLL]
MIC [18]: 8 µM (≈ 10.8 µg/mL) | MIC [19]: 12.5 µM (≈ 16.9 µg/mL) | MIC [3]: 16 µM (≈ 21.7 µg/mL) | MIC [9]: 8 µM (≈ 10.8 µg/mL) | MIC [10]: 16 µM (≈ 21.7 µg/mL)

CC[C@H](C)[C@H](NC(=O)[C@H](CCCCN)NC(=O)[C@H](Cc1c[nH]c2ccccc12)NC(=O)[C@H](Cc1c[nH]c2ccccc12)NC(=O)[C@@H](NC(=O)[C@H](CCCCN)NC(=O)[C@H](Cc1c[nH]c2ccccc12)NC(=O)[C@@H](N)CC(C)C)[C@@H](C)CC)C(=O)N[C@@H](Cc1c[nH]c2ccccc12)C(=O)N[C@@H](CCCN=C(N)N)C(=O)N[C@H](C(=O)N[C@@H](Cc1c[nH]c2ccccc12)C(=O)N[C@@H](Cc1c[nH]c2ccccc12)C(=O)N[C@@H](CC(N)=O)C(=O)N[C@@H](Cc1c[nH]c2ccccc12)C(=O)N[C@@H](CCCN=C(N)N)C(=O)O)C(C)C [LWKIWWKIWRVWWNWR]
MIC [20]: ≥ 52.4 µM | MIC [21]: ≥ 52.4 µM | MIC [22]: ≥ 52.4 µM | MIC [23]: ≥ 52.4 µM

CC[C@H](C)[C@H](NC(=O)[C@H](CCCN=C(N)N)NC(=O)[C@H](CC(C)C)NC(=O)[C@H](CCCN=C(N)N)NC(=O)[C@@H](N)C(C)C)C(=O)N[C@@H](CCCN=C(N)N)C(=O)N[C@H](C(=O)N[C@@H](C)C(N)=O)C(C)C [VRLRIRVA]
MIC [19]: 25 µM (≈ 24.5 µg/mL) | MIC [24]: 10.2 µM (≈ 9.99 µg/mL)
